# Experimental data: US9513288B2, “Isoform-selective inhibitors and activators of PDE3 cyclic nucleotide phosphodiesterases” (The United States of America, as represented by the …, priority 2001, dated 2016)
# Where two headings read alike, the source gives them in different places.
# How the values were obtained:
# PDE3A1 [1] = assay: cAMP-hydrolytic activity of FLAG-tagged PDE3A1 in transfected HEK293 cells; assay type: cell-based, human; conditions: 1 mM dBcAMP 1 hour; for cAMP-hydrolytic activity of PDE3A1: 1 μM isoproterenol 90 sec, 50 μM 8-pCPT-2′-O-Me-cAMP or 0.1 mM sodium butyrate 1 hour
# Experimental: FIG. 3 Illustrates an illustrative effect of d8-pCPT-2′-O-Me-cAMP and sodium butyrate on PDE3A1 activity, wherein HEK293 cells were transfected with FLAG-tagged PDE3A and treated with 50 μM d8-pCPT-2′-O-Me-cAMP, 0.1 mM sodium butyrate or 1 mM dBcAMP for 1 hour. PDE3A activity was assayed as described;
# (§1) FIGS. 9A-9B illustrate stimulation of PDE3A2 and PDE3A1 activity in response to PKC and PKA activation. (A) HEK293 cells were transfected with FLAG-tagged PDE3A2, with and without alanine substitution at S428, and treated with 10 ng/ml PMA for 15 min or 1 mM dBcAMP for 1 hour. (B) HEK293 cells were transfected with FLAG-tagged PDE3A1, with and without alanine substitutions at S312 and S428, and treated with 1 μM isoproterenol for 90 sec, 10 ng/ml PMA for 15 min or 1 mM dBcAMP for 1 hour. PDE3 activity was assayed as described. PDE3A constructs were immunoprecipitated with anti-FLAG antibody, and phosphorylation was analyzed by immunoblotting with anti-FLAG and phosphospecific antibodies as indicated; and
# (§2) PKA and PKC modulate the catalytic activity of PDE3A and PDE3A2 through distinct molecular mechanisms: In view of the reported effects of PKA and PKC on PDE3A activity^3-6, we examined the effects of phosphorylation at S312 and S428 on the cAMP-hydrolytic activity of PDE3A isoforms in transfected HEK293 cells. […] This stimulation was not observed when cells were treated with either the EPAC activator 8-pCPT-2′-O-Me-cAMP or with sodium butyrate (FIG. 3). […] To determine whether similar consequences of phosphorylation occur in the case of PDE3A isoforms, protein extracts from transfected HEK293 cells, untreated or exposed to either isoproterenol or PMA, were analyzed by gel-filtration chromatography, measurement of catalytic activity and Western blotting. Under basal conditions, PDE3 activity and protein was recovered in a biphasic pattern in low- and high-molecular-weight peaks (FIG. 5).
# (§3) Measurement of cAMP-hydrolytic activity: cAMP-hydrolytic activity was quantified at 30° C. by the two-step snake-venom method with [^3H]cAMP (1 μM) as substrate; PDE3 activity was quantified by measuring activity in the absence and presence of cilostamide. The amount of protein used per assay and the incubation times were adjusted to ensure that no more than 20% of the total cyclic nucleotide was hydrolyzed during the assay.
# (§4) Treatment of cells with pharmacologic agents: HEK293 cells expressing the human PDE3A constructs were incubated at 37° C. in serum-free medium containing isoproterenol for 90 sec or PMA for 15 min. At the end of the incubation period, cells were solubilized in lysis buffer containing 20 mM MOPS pH 7.2, 15 mM MgCl2, 0.5% NP40, 150 mM NaCl, 5 mM EDTA, protease inhibitor cocktail and phosphatase inhibitor cocktail 3. Cellular debris was removed by centrifugation (1,000×g; 5 min), and cleared supernatants were used in the experiments.
# PDE3 = assay: cAMP-hydrolytic activity in cytosolic and microsomal fractions of human myocardium; assay type: biochemical
# PDE3A1 [2] = assay: Phosphorylation and 14-3-3 binding of FLAG-tagged PDE3A1 in transfected HEK293 cells; assay type: cell-based, human; conditions: PMA 10 ng/ml 15 min; for phosphorylation of PDE3A1 at S428 / phosphorylation of PDE3A1 at S312: dibutyryl cAMP 1 mM 1 hour, phosphospecific antibodies
# Experimental: (§5) FIGS. 8A-8C Illustrate phosphorylation of PDE3A1 and PDE3A2 in response to PKA and PKC activation. HEK293 cells were transfected with FLAG-tagged PDE3A2 and PDE3A1. (A) Prior to lysis and immunoprecipitation with anti-FLAG antibodies, cells were treated with 1 µM isoproterenol for 90 sec or 10 ng/ml PMA for 15 min. (B) The experiment was carried out in cells incubated in the absence and presence of 100 μM IBMX before treatment with 1 µM isoproterenol for 90 sec. (C) FLAG-tagged PDE3A2 and PDE3A1, affinity-purified from transfected cells using anti-FLAG antibodies, were incubated in the absence or presence of 10 or 100 nM PKA and 200 μM ATP for 20 min at 30° C. Phosphorylation was analyzed by Western blotting with phosphospecific antibodies as indicated.
# (§6) Furthermore, when affinity-purified FLAG-tagged PDE3A and PDE3A2 were phosphorylated in vitro by PKA, PDE3A2 was phosphorylated more robustly than PDE3A1 at both S312 and S428 (for both isoforms, S312 was phosphorylated more robustly than S428) […].
# (§7) Activation of PKC by PMA in transfected HEK293 cells results in selective phosphorylation of PDE3A2 at S428: We compared the effects of PKC activation by PMA on the phosphorylation of FLAG-tagged PDE3A1 and PDE3A2 in transfected HEK293 cells.
# (§8) Illustrative immunoprecipitation and immunoblotting: Endogenous or recombinant human PDE3A, its fragments or mutants, endogenous 14-3-3 or GST-14-3-3 proteins were immunoprecipitated by incubation overnight at 4° C. with anti-FLAG(M2)-coupled agarose beads or glutathione sepharose beads. Beads were centrifuged (5,000×g, 1 min) and washed four times with 1 ml buffer containing 20 mM MOPS pH 7.2, 15 mM MgCl2, 0.5% NP40 and 150 mM NaCl. Proteins were subjected to SDS-PAGE (8% polyacrylamide) and electrophoretic transfer to nitrocellulose membranes. Membranes were blocked using 5% nonfat milk in Tris-buffered saline (50 mM Tris pH 7.5, 150 mM NaCl, 0.1% Tween-20) for 1 h at room temperature and incubated with primary and HRP-conjugated secondary antibodies prepared in 5% (w/v) bovine serum albumin. Protein bands were visualized using an enhanced chemiluminescence detection system.
# as §4
# PDE3A2 [3] = assay: Phosphorylation and 14-3-3 binding of FLAG-tagged PDE3A2 in transfected HEK293 cells; assay type: cell-based, human; conditions: PMA 10 ng/ml 15 min; for phosphorylation of PDE3A2 at S312 / phosphorylation of PDE3A2 at S428: isoproterenol 90 sec, dibutyryl cAMP 1 mM 1 hour, phosphospecific antibodies
# Experimental: as §5, §6, §7, §8, §4
# PDE3A2 [4] = assay: cAMP-hydrolytic activity of FLAG-tagged PDE3A2 in transfected HEK293 cells; assay type: cell-based, human; conditions: 10 ng/ml PMA 15 min, 1 mM dBcAMP 1 hour
# Experimental: as §1, §2, §3, §4
# 3T3 adipocytes = assay: Association of PKB with PDE3B in microsomal fractions of 3T3 adipocytes; assay type: cell-based; conditions: not shown
# Excerpt: The interactions of PKB with PDE3B were examined. Microsomal fractions of 3T3 adipocytes (which express PDE3B) were solubilized with NP-40 and fractionated by gel filtration. […] An association between PKB and PDE3B was confirmed by the ability of anti-PDE3B antibodies to co-immunoprecipitate the two proteins in the PDE3B peak (not shown).
# [5] = treatment of dilated cardiomyopathy; cited from earlier work
# PDE3A2 [6] = assay: Gel-filtration chromatography and two-dimensional analysis of proteins co-immunoprecipitated with PDE3A2 from transfected HEK293 cells; assay type: cell-based, human; conditions: 10 ng/ml PMA 15 min; isoelectric focusing and SDS-PAGE
# Experimental: FIGS. 5A-5B Illustrate two-dimensional analysis of HEK293 cell proteins co-immunoprecipitated with PDE3A, wherein FLAG-tagged PDE3A1- and PDE3A2-transfected HEK293 cells were treated with 1 μM isoproterenol for 90 sec or 10 ng/ml PMA for 15 min, respectively; untransfected, untreated cells served as controls. PDE3A1 and PDE3A2 were immunoprecipitated with anti-FLAG antibody. PDE3A isoforms and co-immunoprecipitated proteins were eluted with 250 μg/ml of 3×FLAG peptide and submitted to isoelectric focusing followed by SDS-PAGE. Proteins were visualized by silver staining, and spots were quantified and analyzed for inter-gel comparison using PDquest 8.1 software. Experiments were carried out in triplicate, such that (A) Images from one experiment are shown. […]
# PKA and PKC modulate the catalytic activity of PDE3A and PDE3A2 through distinct molecular mechanisms: In view of the reported effects of PKA and PKC on PDE3A activity^3-6, we examined the effects of phosphorylation at S312 and S428 on the cAMP-hydrolytic activity of PDE3A isoforms in transfected HEK293 cells. […] To determine whether similar consequences of phosphorylation occur in the case of PDE3A isoforms, protein extracts from transfected HEK293 cells, untreated or exposed to either isoproterenol or PMA, were analyzed by gel-filtration chromatography, measurement of catalytic activity and Western blotting. […]
molecule,measurement,setting,value
CCCC(=O)[O-].[Na+] [sodium butyrate],cAMP-hydrolytic activity of PDE3A1,PDE3A1 [1],not observed
CO[C@@H]1[C@@H]2OP(=O)(O)OC[C@H]2O[C@H]1n1c(Sc2ccc(Cl)cc2)nc2c(N)ncnc21 [8-pCPT-2′-O-Me-cAMP],cAMP-hydrolytic activity of PDE3A1,PDE3A1 [1],not observed
O=C1CCc2cc(OCCCCc3nnnn3C3CCCCC3)ccc2N1 [cilostazol],effects on cAMP-hydrolytic activity,PDE3; cytosolic versus microsomal fractions of human myocardium,more potent effects in microsomal fractions
CCCC(=O)Nc1ncnc2c1ncn2[C@@H]1O[C@@H]2COP(=O)(O)O[C@H]2[C@H]1OC(=O)CCC [dibutyryl cAMP],phosphorylation of PDE3A1 at S428,PDE3A1 [2],significant increase in the phosphorylation of PDE3A at both S312 and S428
same,phosphorylation of PDE3A1 at S312,PDE3A1 [2]; isoproterenol 90 sec,significant increase in the phosphorylation of PDE3A at both S312 and S428
same,cAMP-hydrolytic activity of PDE3A1,PDE3A1 [1],stimulation of cAMP-hydrolytic activity
same,cAMP-hydrolytic activity of PDE3A1 construct with S312A and S428A substitutions,PDE3A1 [1],same stimulation of catalytic activity
same,phosphorylation of PDE3A2 at S312,PDE3A2 [3],phosphorylation at both S312 and S428
same,phosphorylation of PDE3A2 at S428,PDE3A2 [3],phosphorylation at both S312 and S428
same,stimulation of cAMP-hydrolytic activity of PDE3A2 with S428A substitution,PDE3A2 [4],similarly blocked by the S428A mutation
"insulin: insulin, used to treat 3T3 adipocytes",percentage of PKB co-purifying with PDE3B,3T3 adipocytes; gel filtration,appeared to increase the percentage of PKB co-purifying with PDE3B
same,phosphorylation of PKB,3T3 adipocytes,increased the phosphorylation of PKB
Nc1cc(-c2ccncc2)c[nH]c1=O [amrinone],initial hemodynamic responses,[5],favorable hemodynamic responses
CCCCCCCCCCCCCC(=O)O[C@@H]1[C@@H](C)[C@@]2(O)[C@@H](C=C(CO)C[C@]3(O)C(=O)C(C)=C[C@@H]23)[C@@H]2C(C)(C)[C@]12OC(C)=O [PMA],phosphorylation of PDE3A1 at S428,PDE3A1 [2],little increase in phosphorylation at S428
same,binding of PDE3A1 to endogenous 14-3-3 (co-immunoprecipitation),PDE3A1 [2]; isoproterenol 90 sec,little increase in binding to endogenous 14-3-3
same,phosphorylation of PDE3A1 at S312,PDE3A1 [2]; isoproterenol 90 sec,no increase in phosphorylation of S312
same,binding of PDE3A2 to endogenous 14-3-3 (co-immunoprecipitation),PDE3A2 [3],increased binding to endogenous 14-3-3
same,phosphorylation of PDE3A2 at S312,PDE3A2 [3],no increase in phosphorylation at S312
same,phosphorylation of PDE3A2 at S428,PDE3A2 [3],marked increase in phosphorylation at S428
same,number of proteins co-immunoprecipitated with PDE3A2,PDE3A2 [6],increased the number of proteins that co-immunoprecipitated with PDE3A2
same,stimulation of cAMP-hydrolytic activity of PDE3A2 with S428A substitution,PDE3A2 [4],blocked
same,cAMP-hydrolytic activity of PDE3A2,PDE3A2 [4]; isoproterenol,increase in cAMP-hydrolysis
Cc1[nH]c(=O)c(C#N)cc1-c1ccncc1 [milrinone],effects on cAMP-hydrolytic activity,PDE3,more potent effects in microsomal fractions
